From article doi:10.1101/2024.02.23.581746 (2024)
Each block holds one molecule with its values, some of them ahead of it.

Legend:
[1] = tested on: B. subtilis PreQ1 (SHAPE-MaP) (RNA, riboswitch) GGGCCUUCGGGCCAAGCGGGAGAGGUUCUAGCUACACCCUCUAUAAAAAACUAAGGACGAGCUGUAUCCUUGGAUACGGCCUUUUUCGAUCCGGUUCGCCGGAUCCAAAUCGGGCUUCGGUCCGGUUC; assay: SHAPE-MaP (2A3); conditions: 100 mM KCl, 1 mM MgCl2
[2] = tested on: L. rhamnosus PreQ1 (SHAPE-MaP) (RNA, riboswitch) GGGCCUUCGGGCCAAGGAACCGCCCCGCGCGCUUCCACGAUACUUAUUUCCUUUGAUCGUCGUUAUUACUGGCAAAGCCACAAAGGAGUCGAUCCGGUUCGCCGGAUCCAAAUCGGGCUUCGGUCCGGUUC; assay: SHAPE-MaP (2A3); conditions: 100 mM KCl, 1 mM MgCl2
[3] = tested on: F. prausnitzii PreQ1 (SHAPE-MaP) (RNA, riboswitch) GGGCCUUCGGGCCAAGGAACGCUGAAAGAGCAACUUAGGAUUUUAGGCUCCCCGGCGUGUCUCGAACCAUGCCGGGCCAAACCCAUAGGGCUGGCGGUCCCUGUGCGGUCAAAAUUCAUCCGCCGGAGUAUUGUUAUCGAUCCGGUUCGCCGGAUCCAAAUCGGGCUUCGGUCCGGUUC; assay: SHAPE-MaP (2A3); conditions: 100 mM KCl, 1 mM MgCl2
[4] = tested on: S. pneumoniae PreQ1 (SHAPE-MaP) (RNA, riboswitch) GGGCCUUCGGGCCAACUUGGUGCUUAGCUUCUUUCACCAAGCAUAUUACACGCGGAUAACCGCCAAAGGAGAAUCGAUCCGGUUCGCCGGAUCCAAAUCGGGCUUCGGUCCGGUUC; assay: SHAPE-MaP (2A3); conditions: 100 mM KCl, 1 mM MgCl2
[5] = tested on: Tte-PreQ1 ab13_14_15 (RNA, riboswitch, abasic at 13, 14 and 15) CUGGGUCGCAGUNNNCCCAGUUAACAAAACAAG; assay: X-ray crystallography, 2.15 Å; conditions: potassium sodium tartrate 100-300 mM; sodium citrate pH 5.6, ammonium sulfate 2.0-2.6 M, 20 °C
[6] = tested on: Bsu PreQ1 RNA (MAGNA) (RNA, riboswitch) UCGGCGAUCUACGCAGCGACAUAAUAAGAGGUUCUAGCUACACCCUCUAUAAAAAACUAAUAACAACCACUUCCUAAUCUGUCAUCUUCUG; assay: magnetic force spectroscopy (MAGNA), median unfolding force; conditions: 100 mM KCl, 1 mM MgCl2; 50 mM HEPES pH 7.4, 1% DMSO, 22 °C; from refolding force 456±258 μM
[7] = tested on: Cy5-labeled Bsu PreQ1 aptamer (RNA, riboswitch) GCGGGAGAGGUUCUAGCUACACCCUCUAUAAAAAACUAAGGACGAGCUGUAUCCUUGGAUACGGCC; assay: MST; conditions: 100 mM KCl, 1 mM MgCl2, 50 mM Tris pH 7.5, room temperature, DMSO
[8] = tested on: Tte-PreQ1 ab13_14_15 (RNA, riboswitch, abasic at 13, 14 and 15) CUGGGUCGCAGUNNNCCCAGUUAACAAAACAAG; assay: X-ray crystallography, 2.25 Å; conditions: potassium sodium tartrate 100-300 mM; sodium citrate pH 5.6, ammonium sulfate 2.0-2.6 M, 20 °C
[9] = tested on: Cy5-labeled Bsu PreQ1 aptamer (RNA, riboswitch) GCGGGAGAGGUUCUAGCUACACCCUCUAUAAAAAACUAAGGACGAGCUGUAUCCUUGGAUACGGCC; assay: Cy5 fluorescence intensity assay (text says ligand fluorescence); conditions: 100 mM KCl, 1 mM MgCl2; 50 mM Tris pH 7.5, room temperature, 5% DMSO, 50 nM RNA
[10] = tested on: Cy5-labeled Bsu PreQ1 aptamer (RNA, riboswitch) GCGGGAGAGGUUCUAGCUACACCCUCUAUAAAAAACUAAGGACGAGCUGUAUCCUUGGAUACGGCC; assay: MST (Figure S1 legend); text says ligand fluorescence; conditions: 100 mM KCl, 1 mM MgCl2; 50 mM Tris pH 7.5, room temperature, DMSO
[11] = tested on: T. tengcongensis PreQ1 (SHAPE-MaP) (RNA, riboswitch) GGGCCUUCGGGCCAACUCACCUGGGUCGCAGUAACCCCAGUUAACAAAACAAGGGAGGUAAUUUUUCGAUCCGGUUCGCCGGAUCCAAAUCGGGCUUCGGUCCGGUUC; assay: SHAPE-MaP (2A3); conditions: 100 mM KCl, 1 mM MgCl2; 50 mM Tris pH 7.5, 10 μM compound
[12] = tested on: Bsu PreQ1 RNA (MAGNA) (RNA, riboswitch) UCGGCGAUCUACGCAGCGACAUAAUAAGAGGUUCUAGCUACACCCUCUAUAAAAAACUAAUAACAACCACUUCCUAAUCUGUCAUCUUCUG; assay: magnetic force spectroscopy (MAGNA); conditions: 100 mM KCl, 1 mM MgCl2; 50 mM HEPES pH 7.4, 1% DMSO, 22 °C; 500 nM called saturating
[13] = 50 mM Tris pH 7.5, 150 μM compound
[14] = 50 mM Tris pH 7.5, 10 μM compound

Compound: CN(C)CCOc1ccc2sc3ccccc3c(=O)c2c1
KD [7]: 58 ± 30 µM

Compound: CNc1cc2c(=O)c3cc(O)ccc3oc2cn1
binding ([7]; tested up to 500 μM): no

Compound: Cc1nccc2c1[nH]c1cc(OCCN(C)C)ccc12
binding [8]: yes
KD [9]: 104.4 ± 20 µM

Compound: NCc1c[nH]c2nc(N)[nH]c(=O)c12
binding [1, 14]: yes
binding [11]: yes
binding [2, 14]: yes
binding [3, 14]: yes
binding [4, 14]: yes
binding [12]: yes

The next lines start with the values.

binding [1, 13]: yes
binding [2, 13]: yes
binding [3, 13]: yes
binding [4, 13]: yes
binding [5]: yes
EC50 [6]: 394 ± 157 µM
Compound: CN(C)CCOc1ccc2oc3ccccc3c(=O)c2c1

KD [7]: 1.9 ± 0.2 µM
Compound: COc1ccc2c(c1)NC(=O)c1cc(N)ccc1O2

KD [7]: 18.3 ± 7.0 µM
Compound: COc1ccc2c(c1)Oc1ccc(N)cc1C(=O)N2

KD [10]: > 500 µM
Compound: NC(=O)COc1ccc2oc3ccccc3c(=O)c2c1
